Results reported in a compilation of properties of binary mixtures (doi:10.1007/s11581-010-0511-5).

Experiment: xn = mol fraction of the nth substance listed
Details: 101 kPa

CO + CCCC[N+]1(C)CCCC1.O=S(=O)([N-]S(=O)(=O)C(F)(F)F)C(F)(F)F
x2 = 0
Details	viscosity [mPa·s]
298.15 K	0.7
303.15 K	0.66
308.15 K	0.61
313.15 K	0.57
318.15 K	0.53

CCCC[N+]1(C)CCCC1.O=S(=O)([N-]S(=O)(=O)C(F)(F)F)C(F)(F)F + CO
Details	electrical conductivity [S/m]	viscosity [mPa·s]
293.15 K, x1 = 0.11	0.628	2.16
293.15 K, x1 = 0.16	1.22	3.9
293.15 K, x1 = 0.21	1.6	6.01
293.15 K, x1 = 0.32	1.98	10.65
293.15 K, x1 = 0.42	2.14	15.15
293.15 K, x1 = 0.47	2.04	17.28
293.15 K, x1 = 0.53	1.82	19.42
293.15 K, x1 = 0.58	1.63	21.7
293.15 K, x1 = 0.63	1.47	24.4
293.15 K, x1 = 0.68	1.23	27.6
293.15 K, x1 = 0.74	0.998	31.9
293.15 K, x1 = 0.79	0.82	37.6
293.15 K, x1 = 0.84	0.649	45.2
293.15 K, x1 = 0.89	0.402	55.3
293.15 K, x1 = 0.95	–	68.7
293.15 K, x1 = 1	0.229	86
298.15 K, x1 = 0.05	0.399	0.94
298.15 K, x1 = 0.11	0.684	1.93
298.15 K, x1 = 0.16	1.32	3.43
298.15 K, x1 = 0.21	1.73	5.24
298.15 K, x1 = 0.32	2.15	9.18
298.15 K, x1 = 0.37	2.32	11.1
298.15 K, x1 = 0.42	2.37	12.93
298.15 K, x1 = 0.47	2.33	14.69
298.15 K, x1 = 0.53	2.12	16.43
298.15 K, x1 = 0.58	1.88	18.28
298.15 K, x1 = 0.63	1.66	20.39
298.15 K, x1 = 0.68	1.43	23
298.15 K, x1 = 0.74	1.2	26.3
298.15 K, x1 = 0.79	0.991	30.8
298.15 K, x1 = 0.84	0.786	36.7
298.15 K, x1 = 0.89	0.495	44.6
298.15 K, x1 = 0.95	–	54.9
298.15 K, x1 = 1	0.282	68.1
303.15 K, x1 = 0.05	0.43	0.88
303.15 K, x1 = 0.11	0.754	1.75
303.15 K, x1 = 0.16	1.43	3.06
303.15 K, x1 = 0.21	1.88	4.62
303.15 K, x1 = 0.32	2.35	7.96
303.15 K, x1 = 0.37	2.53	9.57
303.15 K, x1 = 0.47	2.59	12.57
303.15 K, x1 = 0.53	2.37	14.02
303.15 K, x1 = 0.58	2.1	15.54
303.15 K, x1 = 0.63	1.84	17.28
303.15 K, x1 = 0.68	1.6	19.39
303.15 K, x1 = 0.74	1.35	22.1
303.15 K, x1 = 0.79	1.13	25.6
303.15 K, x1 = 0.84	0.94	30.2
303.15 K, x1 = 0.89	0.601	36.2
303.15 K, x1 = 0.95	–	44
303.15 K, x1 = 1	0.344	54
308.15 K, x1 = 0.05	0.464	0.82
308.15 K, x1 = 0.11	0.816	1.6
308.15 K, x1 = 0.16	1.54	2.75
308.15 K, x1 = 0.21	2.07	4.1
308.15 K, x1 = 0.32	2.55	6.97
308.15 K, x1 = 0.37	2.74	8.34
308.15 K, x1 = 0.42	2.86	9.64
308.15 K, x1 = 0.53	2.65	12.09
308.15 K, x1 = 0.58	2.36	13.36
308.15 K, x1 = 0.63	2.1	14.8
308.15 K, x1 = 0.74	1.57	18.74
308.15 K, x1 = 0.79	1.33	21.6
308.15 K, x1 = 0.84	1.1	25.3
308.15 K, x1 = 0.89	0.686	30.2
308.15 K, x1 = 0.95	–	36.4
308.15 K, x1 = 1	0.415	44.4
313.15 K, x1 = 0.05	0.504	0.77
313.15 K, x1 = 0.11	0.86	1.47
313.15 K, x1 = 0.16	1.66	2.48
313.15 K, x1 = 0.21	2.24	3.67
313.15 K, x1 = 0.26	2.53	4.92
313.15 K, x1 = 0.37	2.95	7.34
313.15 K, x1 = 0.42	3.07	8.45
313.15 K, x1 = 0.47	3.09	9.51
313.15 K, x1 = 0.58	2.63	11.64
313.15 K, x1 = 0.63	2.38	12.85
313.15 K, x1 = 0.79	1.55	18.4
313.15 K, x1 = 0.89	0.876	25.1
313.15 K, x1 = 0.95	–	29.8
318.15 K, x1 = 0.05	0.538	0.73
318.15 K, x1 = 0.11	0.94	1.36
318.15 K, x1 = 0.16	1.8	2.26
318.15 K, x1 = 0.26	2.7	4.39
318.15 K, x1 = 0.32	3.02	5.45
318.15 K, x1 = 0.37	3.18	6.46
318.15 K, x1 = 0.42	3.26	7.41
318.15 K, x1 = 0.47	3.3	8.32
318.15 K, x1 = 0.53	3.18	9.22
318.15 K, x1 = 0.58	2.86	10.16
318.15 K, x1 = 0.74	1.98	14.02
318.15 K, x1 = 0.89	0.991	21.4
318.15 K, x1 = 1	0.559	29.7
